Type in all cases: cell-based
The target in test [1] is T1, deltaF508 CFTR (Homo sapiens, UniProt P13569, DEL508-508).
T1 construct: host or cells: CFBE (cystic fibrosis bronchial-derived cell line)
Put plainly: CFBE potentiator assay (FLIPR membrane potential, temperature-rescued). The conditions noted are these: CFBE cells, 3 micromolar forskolin; read-out: CFBE potentiator assay pot. pEC50 (converted). Here is the method: Cell culture: HEK293 cells stably expressing human deltaF508 CFTR were cultured in DMEM/F12 medium containing 10% fetal bovine serum (FBS) and 600 micrograms/mL geneticin. For functional CFTR assays, cryo-preserved cells were quickly thawed in a 37° C. water bath, diluted with warm DMEM/F12 medium containing 10% FBS, spun down at 300×g for 5 mins and resuspended in the same medium at a density of 300,000 cells/mL. A cystic fibrosis bronchial-derived cell line complemented with a 4.7 Kb deltaF508 CFTR cDNA (“CFBE”) was obtained from Dr. Dieter Gruenert under a license from UCSF. These cells were cultured in MEM with Earle's salt (Invitrogen)supplemented with 10% fetal bovine serum (Invitrogen) and 300 micrograms/mL hygromycin (Millipore). CFBE cells were grown on flasks coated with a fibronectin solution containing LHC basal medium (Invitrogen), 0.001% bovine serum albumin (Sigma), 1% v/v Vitrogen 100 (BD Bioscience) and 10 micrograms/mL human fibronectin (Life Technologies). All cells were grown at 37° C. and 5% CO2 unless specified for an assay.
CFBE potentiator assay: CFBE cells were dissociated for 10 mins at 37° C. with Hank's balanced salt solution containing 0.6 mM EDTA and 10% of a 0.25% Trypsin/EDTA solution (all from Life Technologies). An equal amount of CFBE cell growth medium (see Cell culture above) was then added to the flasks and cells were spun at 500×g for 10 mins. Cells were re-suspended in cell medium at a density of 150,000 cells/mL and plated in 384-well black, poly-D-Lysine-coated plates (7,500 cells/well). Cells were then grown at 37° C., 5% CO2 for a total of 6-8 days to allow differentiation. Cell medium was changed every 2-3 days. The day before each experiment, culture medium was removed, fresh culture medium was added and cells were placed at 30° C., 5% CO2 for 18-24 hrs to allow temperature rescue of delF508 CFTR. Potentiation activity was measured as described above for HEK cells except cells were stained for exactly 60 mins, compounds (or DMSO for negative control) were mixed with assay buffer containing 3 micromolar forskolin, and the positive control wells had assay buffer containing 3 micromolar forskolin and 9 micromolar VX-770 (Selleckchem).
Data analysis: CFTR activity was defined as maximum fluorescence signal after addition minus baseline fluorescence. All data were normalized to each plate's positive and negative controls and expressed as percent responses. Concentration response curves were analyzed by fitting the data to a 4-parameter logistic equation in Microcal's Origin or IDBS' Activity Base software.

The target in test [2] is T2, Wt-CFTR (Homo sapiens, UniProt P13569). Put plainly: Ussing chamber short circuit current, primary human bronchial epithelial cultures. As to conditions: 1 μM, after forskolin 100 nM. Here is the method:
The impact of SK-POT (compound 11) in potentiating Wt-CFTR mediated transepithelial chloride conduction in primary human bronchial epithelial cultures was then tested.

Test [3] has as its target T2, Wt-CFTR. Put plainly: Calu-3 CSE experiments, FLiPR assay of CFTR channel activity. Also on record: this airway epithelial cell line endogenously expresses this channel; endogenous in cells; host or cells: Calu-3. Here is the method: Addition of CFTR-inhibitor indicated with grey arrow. Superimposed, we show the effect of acute co-application of VX-770 (open squares) or SK-POT (open triangles) with forskolin. […] Only SK-POT rescued CFTR channel function in the presence of cigarette smoke extract.
Calu-3 cells were cultured using EMEM (Wisent) supplemented with FBS at 20% (v/v) and 1× Penicillin/Streptomycin (Wisent). Calu-3 cells were seeded on clear-bottom, black-walled 96 well plates (Costar, Corning) at a density of 10,000 cells/well and cultured for 2 days post-confluence. Cells then received the chronic treatment of toxin and potentiator. The toxin treatment consisted of either cigarette smoke extract (CSE) prepared in 100% DMSO (University of Alabama at Birmingham), dissolved at a concentration of 2% (v/v) in Calu-3 medium, with an equivalent concentration of DMSO alone serving as the toxin control. The chronic drug treatment was co-applied with the toxin, which included either VX-770 or Compound 11 (both prepared in 100% DMSO) dissolved in Calu-3 medium at a final concentration of 1 μm. VX-770 (Vertex) and Compound 11 solutions were prepared from 1 mM stocks. The control for the drug treatment was the vehicle, DMSO at an equivalent volume. Combining the two toxin treatments and three drug treatments, a total of six treatments were applied chronically to 4 wells per condition, for a total of 24 wells receiving chronic treatment.
Cells were cultured for an additional 24 hours after chronic treatment application, after which cells were incubated with FLiPR assay buffer. The FLiPR assay buffer consisted of blue FLiPR dye (Molecular Devices) dissolved at a concentration of 0.5 mg/mL in chloride-free buffer (150 mM NMDG, 150 mM gluconolactone, 3 mM potassium gluconate, 300 mOsm and pH 7.38). Buffer was incubated with cells at 37 degrees and 5% CO2 for 35 minutes. CFTR function was assessed by measuring changes in fluorescence activity after acute CFTR channel activation by addition of cAMP agonist forskolin dissolved in chloride-free buffer to a final concentration 1 μm, using the SpectraMax i3x multimodal plate reader. Fluorescence readings (excitation 530 nm; emission 560 nm) for each well were taken at 30-second intervals for 5 minutes (baseline) or 10 minutes (activation). CFTR activity was then terminated by addition of CFTR-inhibitor 172 dissolved in chloride-free buffer to a concentration of 10 μm, to further verify the specificity of the response to CFTR activity. Fluorescence changes were recorded at 30-second intervals for another 10 minutes. In analysis, all fluorescence values were normalized per well to the final reading prior to the addition of forskolin and expressed as a percentage of this reading.

The values below come from patent US20260055065A1, “PYRIDAZINONE COMPOUNDS WHICH MODULATE MUTANT PROTEINS FOR TREATING RESPIRATORY DISEASES” (The Hospital for Sick Children, priority 2022, published 2026).

As a reminder, the EC90 is the point of the concentration-response curve where the effect stands at 90%.

T2 sequence (P13569 whole entry): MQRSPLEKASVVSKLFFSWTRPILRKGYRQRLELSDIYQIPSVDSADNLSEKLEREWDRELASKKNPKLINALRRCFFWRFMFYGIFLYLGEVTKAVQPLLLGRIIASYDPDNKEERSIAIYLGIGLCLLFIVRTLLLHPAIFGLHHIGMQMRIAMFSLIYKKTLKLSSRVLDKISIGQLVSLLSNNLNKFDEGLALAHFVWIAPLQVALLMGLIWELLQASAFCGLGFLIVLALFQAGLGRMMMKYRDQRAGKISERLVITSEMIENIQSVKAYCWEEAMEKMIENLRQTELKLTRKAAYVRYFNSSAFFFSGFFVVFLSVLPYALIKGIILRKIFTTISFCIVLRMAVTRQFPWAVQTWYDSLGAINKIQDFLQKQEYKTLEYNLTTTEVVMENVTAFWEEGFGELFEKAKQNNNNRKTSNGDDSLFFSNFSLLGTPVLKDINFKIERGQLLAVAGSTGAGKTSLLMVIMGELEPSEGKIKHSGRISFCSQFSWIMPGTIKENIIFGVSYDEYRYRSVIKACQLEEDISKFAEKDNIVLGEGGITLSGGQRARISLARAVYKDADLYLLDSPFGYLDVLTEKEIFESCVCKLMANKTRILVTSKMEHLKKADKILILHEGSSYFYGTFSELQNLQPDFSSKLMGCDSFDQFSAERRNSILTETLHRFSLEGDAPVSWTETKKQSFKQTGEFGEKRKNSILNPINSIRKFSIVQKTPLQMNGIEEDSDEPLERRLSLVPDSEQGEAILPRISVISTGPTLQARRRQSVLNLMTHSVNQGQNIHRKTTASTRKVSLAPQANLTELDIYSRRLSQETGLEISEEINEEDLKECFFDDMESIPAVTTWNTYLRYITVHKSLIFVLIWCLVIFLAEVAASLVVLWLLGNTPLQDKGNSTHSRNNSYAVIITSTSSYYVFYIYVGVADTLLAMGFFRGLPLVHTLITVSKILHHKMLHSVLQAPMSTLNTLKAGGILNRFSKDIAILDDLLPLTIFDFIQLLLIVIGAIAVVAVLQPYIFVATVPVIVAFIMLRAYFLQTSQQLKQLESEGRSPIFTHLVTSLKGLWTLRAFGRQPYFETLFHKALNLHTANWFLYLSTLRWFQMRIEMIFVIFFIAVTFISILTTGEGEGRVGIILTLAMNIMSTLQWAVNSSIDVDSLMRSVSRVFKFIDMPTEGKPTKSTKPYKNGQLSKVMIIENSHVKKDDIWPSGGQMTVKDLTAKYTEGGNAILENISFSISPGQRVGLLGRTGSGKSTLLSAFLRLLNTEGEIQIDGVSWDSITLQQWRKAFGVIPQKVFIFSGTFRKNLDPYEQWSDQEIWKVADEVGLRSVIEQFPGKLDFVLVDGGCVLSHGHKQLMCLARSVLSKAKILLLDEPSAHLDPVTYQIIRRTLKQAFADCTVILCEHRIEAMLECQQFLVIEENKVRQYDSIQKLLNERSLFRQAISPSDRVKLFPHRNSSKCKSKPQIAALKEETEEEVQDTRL
T1 sequence (P13569 with tags, fused parts or gaps DEL508-508): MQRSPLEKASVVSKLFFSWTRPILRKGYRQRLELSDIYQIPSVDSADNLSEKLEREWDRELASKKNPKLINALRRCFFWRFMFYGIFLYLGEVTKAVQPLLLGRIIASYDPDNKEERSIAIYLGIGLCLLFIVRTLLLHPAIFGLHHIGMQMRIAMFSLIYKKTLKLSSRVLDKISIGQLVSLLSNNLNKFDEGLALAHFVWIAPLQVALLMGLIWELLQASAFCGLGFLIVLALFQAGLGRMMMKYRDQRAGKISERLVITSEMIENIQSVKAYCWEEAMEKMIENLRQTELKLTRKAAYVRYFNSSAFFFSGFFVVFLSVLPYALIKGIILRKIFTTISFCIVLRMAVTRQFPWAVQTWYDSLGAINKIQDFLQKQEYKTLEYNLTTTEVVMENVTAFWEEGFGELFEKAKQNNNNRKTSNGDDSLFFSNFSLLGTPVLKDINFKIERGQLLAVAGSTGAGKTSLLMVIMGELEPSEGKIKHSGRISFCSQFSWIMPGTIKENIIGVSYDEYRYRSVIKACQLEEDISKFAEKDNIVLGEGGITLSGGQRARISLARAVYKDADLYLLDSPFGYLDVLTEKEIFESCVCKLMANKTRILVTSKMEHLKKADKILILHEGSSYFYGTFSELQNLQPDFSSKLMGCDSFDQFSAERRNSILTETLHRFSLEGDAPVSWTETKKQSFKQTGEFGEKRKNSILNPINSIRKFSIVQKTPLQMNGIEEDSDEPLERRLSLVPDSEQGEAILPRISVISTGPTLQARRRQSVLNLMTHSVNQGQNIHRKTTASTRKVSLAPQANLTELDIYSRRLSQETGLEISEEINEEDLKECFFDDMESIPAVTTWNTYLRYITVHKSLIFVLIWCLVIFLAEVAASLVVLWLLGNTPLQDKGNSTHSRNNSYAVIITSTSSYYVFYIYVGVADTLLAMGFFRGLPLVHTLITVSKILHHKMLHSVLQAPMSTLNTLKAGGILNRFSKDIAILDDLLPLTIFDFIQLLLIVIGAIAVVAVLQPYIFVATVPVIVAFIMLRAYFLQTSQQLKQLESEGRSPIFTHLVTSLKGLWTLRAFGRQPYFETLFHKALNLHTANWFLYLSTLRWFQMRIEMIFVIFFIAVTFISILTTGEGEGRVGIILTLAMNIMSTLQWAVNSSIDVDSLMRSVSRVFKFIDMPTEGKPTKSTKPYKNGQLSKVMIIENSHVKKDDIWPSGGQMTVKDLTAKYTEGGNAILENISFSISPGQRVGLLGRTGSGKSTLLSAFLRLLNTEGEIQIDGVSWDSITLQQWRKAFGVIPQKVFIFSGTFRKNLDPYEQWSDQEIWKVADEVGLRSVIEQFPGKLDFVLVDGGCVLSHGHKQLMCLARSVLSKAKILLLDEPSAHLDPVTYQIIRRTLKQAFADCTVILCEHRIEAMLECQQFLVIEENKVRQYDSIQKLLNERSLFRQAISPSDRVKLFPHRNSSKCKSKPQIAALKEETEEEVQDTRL

Consider `CC(C)(C)c1ccc(-n2nc(-c3ccc(F)cc3)c(N3CCCCC3)c(N)c2=O)cc1O` [Compound 11, 4-amino-2-(4-(tert-butyl)-3-hydroxyphenyl)-6-(4-fluorophenyl)-5-(piperidin-1-yl)pyridazin-3(2H)-one], for which, in test [1], the EC50 is 10 nM. The “forskolin activated short circuit currents mediated by Wt-CFTR” value in test [2] is “potentiated”. Also, in test [3] (Calu-3, CSE 2%, compounds 1 uM), the “forskolin-activated CFTR channel activity after CSE exposure” value was “significant increase in forskolin-activated CFTR channel activity”. The EC90 in test [3] (Calu-3, CFTR channel potentiation, read-out: approximate EC90) was approximately 1000 nM.
